Experimental data as given in PubChem BioAssay AID248 (DTP/NCI, 2004).
“And” between values parts separate entries of the source, which are not always exact repeats. Identical values can stand only once. Inconclusive results and toxic doses are left out. Rule as the data show it: active = T/C of 150% or more; inactive = T/C below 125%.

Test system: L1210 leukemia ip in BDF1 mice, survival T/C
Experiment: NCI In Vivo Anticancer Drug Screen. Data for tumor model L1210 Leukemia (intraperitoneal) in B6D2F1 (BDF1) mice
Conditions: endpoint: mean survival time, higher = longer survival
Outline: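 Transplanted-tumor mice were given test agent; controls received vehicle only. Survival readings from the two groups were divided (treated over control).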

[1] = dose: 100.0 mg/kg/injection, schedule: Q01DX009 (ip), vehicle: saline with Tween-80
[2] = dose: 200.0 mg/kg/injection, schedule: Q01DX009 (ip), vehicle: saline with Tween-80
[3] = dose: 100.0 mg/kg/injection, schedule: Q01DX009 (ip), vehicle: Klucel (hydroxypropylcellulose) (HPC)
[4] = dose: 200.0 mg/kg/injection, schedule: Q01DX009 (ip), vehicle: Klucel (hydroxypropylcellulose) (HPC)
[5] = dose: 400.0 mg/kg/injection, schedule: Q01DX009 (ip), vehicle: Klucel (hydroxypropylcellulose) (HPC)
[6] = dose: 75.0 mg/kg/injection, schedule: Q01DX001 (ip), vehicle: saline
[7] = dose: 150.0 mg/kg/injection, schedule: Q01DX001 (ip), vehicle: saline
[8] = dose: 50.0 mg/kg/injection, schedule: Q01DX009 (ip), vehicle: Klucel (hydroxypropylcellulose) (HPC)
[9] = dose: 100.0 mg/kg/injection, schedule: Q01DX001 (ip), vehicle: saline
[10] = dose: 200.0 mg/kg/injection, schedule: Q01DX001 (ip), vehicle: saline
[11] = dose: 400.0 mg/kg/injection, schedule: Q01DX001 (ip), vehicle: saline

Measured: T/C

O=S1(=O)CCCCC1
inactive: dose: 75.0 mg/kg/injection, schedule: Q01DX009 (ip), vehicle: other 106 % of control | dose: 100.0 mg/kg/injection, schedule: Q04DX003 (ip), vehicle: saline sonified 95 % of control | dose: 150.0 mg/kg/injection, schedule: Q01DX009 (ip), vehicle: other 101 % of control | dose: 200.0 mg/kg/injection, schedule: Q04DX003 (ip), vehicle: saline sonified 93 % of control | dose: 300.0 mg/kg/injection, schedule: Q01DX009 (ip), vehicle: other 93 % of control | dose: 400.0 mg/kg/injection, schedule: Q04DX003 (ip), vehicle: saline sonified 95 % of control

N#CCCOC(=O)CCC(=O)OCCC#N
inactive: dose: 100.0 mg/kg/injection, schedule: Q01DX001 (ip), vehicle: other 104 % of control | dose: 200.0 mg/kg/injection, schedule: Q01DX001 (ip), vehicle: other 100 % of control | dose: 400.0 mg/kg/injection, schedule: Q01DX001 (ip), vehicle: other 102 % of control

CS(=O)(=O)OCCCN(CCCOS(C)(=O)=O)c1ccc(C=Nc2ccc(-c3csc(COc4ccc(Br)cc4)n3)cc2)cc1
inactive: [1] 95 % of control | [2] 95 % of control

O=C(Nc1ccc(Cl)cc1Cl)Sc1ccc(Cl)cc1
inactive: [3] 91 % of control | [4] 96 % of control | [5] 88 % of control

ClC1=C(Cl)C(Cl)(Cl)SC1(Cl)Cl
inactive: dose: 3.12 mg/kg/injection, schedule: Q01DX009 (ip), vehicle: acetone 90 % of control | dose: 6.25 mg/kg/injection, schedule: Q01DX009 (ip), vehicle: acetone 101 % of control | dose: 12.5 mg/kg/injection, schedule: Q01DX001 (ip), vehicle: acetone 99 % of control | dose: 12.5 mg/kg/injection, schedule: Q01DX009 (ip), vehicle: acetone 96 % of control | dose: 12.5 mg/kg/injection, schedule: Q04DX003 (ip), vehicle: acetone 92 % of control | dose: 25.0 mg/kg/injection, schedule: Q01DX001 (ip), vehicle: acetone 100 % of control | dose: 50.0 mg/kg/injection, schedule: Q01DX001 (ip), vehicle: acetone 99 % of control

CCOc1c(Br)cc(Br)cc1C=C(C#N)C#N
inactive: dose: 25.0 mg/kg/injection, schedule: Q01DX009 (ip), vehicle: other 102 % of control | dose: 50.0 mg/kg/injection, schedule: Q01DX009 (ip), vehicle: other 98 % of control | dose: 100.0 mg/kg/injection, schedule: Q04DX003 (ip), vehicle: other 102 % of control | dose: 200.0 mg/kg/injection, schedule: Q04DX003 (ip), vehicle: other 108 % of control

COC1C=CC2C3Cc4ccc(O)c5c4C2(CCN3C)C1O5 (stereo not drawn)
inactive: [6] 104 % of control | [7] 103 % of control

CCc1cccc(CC)c1N1C(=O)CC(Sc2ccccc2N)C1=O (stereo not drawn)
inactive: dose: 100.0 mg/kg/injection, schedule: Q01DX009 (ip), vehicle: gum acacia 93 % of control | dose: 100.0 mg/kg/injection, schedule: Q04DX003 (ip), vehicle: gum acacia 96 % of control | dose: 200.0 mg/kg/injection, schedule: Q01DX009 (ip), vehicle: gum acacia 91 % of control | dose: 200.0 mg/kg/injection, schedule: Q04DX003 (ip), vehicle: gum acacia 91 % of control | dose: 400.0 mg/kg/injection, schedule: Q01DX009 (ip), vehicle: gum acacia 98 % of control | dose: 400.0 mg/kg/injection, schedule: Q04DX003 (ip), vehicle: gum acacia 100 % of control

CN1C2CCC1CC(=O)C2
inactive: [6] 103 % of control | [7] 102 % of control

COc1cc([N+](=O)[O-])ccc1NC(=O)Oc1ccccc1C(N)=O
inactive: dose: 12.5 mg/kg/injection, schedule: Q01DX009 (ip), vehicle: Klucel (hydroxypropylcellulose) (HPC) 102 % of control | dose: 25.0 mg/kg/injection, schedule: Q01DX009 (ip), vehicle: Klucel (hydroxypropylcellulose) (HPC) 100 % of control | [8] 98 % of control

COC(=O)C1(C)COP(=O)(Nc2ccc(Br)cc2)OC1 (stereo not drawn)
inactive: [9] 96 % of control | [10] 86 % of control | [11] 91 % of control

CCCCC1=CC(=O)C2CCCCC2C1=O (stereo not drawn)
inactive: dose: 100.0 mg/kg/injection, schedule: Q01DX001 (ip), vehicle: Klucel (hydroxypropylcellulose) (HPC) 102 % of control | dose: 200.0 mg/kg/injection, schedule: Q01DX001 (ip), vehicle: Klucel (hydroxypropylcellulose) (HPC) 105 % of control | dose: 400.0 mg/kg/injection, schedule: Q01DX001 (ip), vehicle: Klucel (hydroxypropylcellulose) (HPC) 92 % of control

Cc1nn2c(=O)[nH]cnc2c1Cl
inactive: [1] 108 % of control | dose: 100.0 mg/kg/injection, schedule: Q04DX003 (ip), vehicle: saline with Tween-80 91 % of control | [2] 108 % of control | dose: 200.0 mg/kg/injection, schedule: Q04DX003 (ip), vehicle: saline with Tween-80 89 % of control | dose: 400.0 mg/kg/injection, schedule: Q01DX009 (ip), vehicle: saline with Tween-80 105 % of control | dose: 400.0 mg/kg/injection, schedule: Q04DX003 (ip), vehicle: saline with Tween-80 92 % of control

C(OC[C@H]1CC[C@@H](COCC2CO2)O1)C1CO1 (stereo partly drawn)
inactive: [9] 112 % of control | dose: 108.0 mg/kg/injection, schedule: Q01DX007 (ip), vehicle: saline 120 % of control | dose: 178.0 mg/kg/injection, schedule: Q01DX001 (ip), vehicle: saline 106 % of control and 110 % of control | [10] 109 % of control | dose: 267.0 mg/kg/injection, schedule: Q01DX001 (ip), vehicle: saline 114 % of control and 115 % of control | [11] 114 % of control | dose: 600.0 mg/kg/injection, schedule: Q01DX001 (ip), vehicle: saline 98 % of control

CC(C)(O)C(=O)NCNC(=O)C(C)(C)O
inactive: [3] 102 % of control | dose: 100.0 mg/kg/injection, schedule: Q04DX003 (ip), vehicle: Klucel (hydroxypropylcellulose) (HPC) 103 % of control | [4] 97 % of control | dose: 200.0 mg/kg/injection, schedule: Q04DX003 (ip), vehicle: Klucel (hydroxypropylcellulose) (HPC) 103 % of control | [5] 97 % of control | dose: 400.0 mg/kg/injection, schedule: Q04DX003 (ip), vehicle: Klucel (hydroxypropylcellulose) (HPC) 106 % of control

CCCCOC(=O)Cc1cccc2ccccc12
inactive: dose: 222.0 mg/kg/injection, schedule: Q01DX Z (ip), vehicle: methylcellulose (MC) 102 % of control | dose: 333.0 mg/kg/injection, schedule: Q01DX Z (ip), vehicle: methylcellulose (MC) 110 % of control | dose: 500.0 mg/kg/injection, schedule: Q01DX Z (ip), vehicle: methylcellulose (MC) 104 % of control

CCO/C=N\c1[nH]ncc1C#N
inactive: [8] 93 % of control | [3] 107 % of control | [4] 103 % of control

N#CCCNC(CO)C(=O)O (stereo not drawn)
inactive: dose: 100.0 mg/kg/injection, schedule: Q01DX001 (ip), vehicle: carboxymethylcellulose (CMC) 94 % of control | dose: 200.0 mg/kg/injection, schedule: Q01DX001 (ip), vehicle: carboxymethylcellulose (CMC) 92 % of control | dose: 400.0 mg/kg/injection, schedule: Q01DX001 (ip), vehicle: carboxymethylcellulose (CMC) 89 % of control

CC(C)[As](=O)(O)O
inactive: dose: 25.0 mg/kg/injection, schedule: Q01DX009 (ip), vehicle: saline 97 % of control | dose: 50.0 mg/kg/injection, schedule: Q01DX009 (ip), vehicle: saline 90 % of control | dose: 100.0 mg/kg/injection, schedule: Q01DX009 (ip), vehicle: saline 104 % of control and 106 % of control

O=c1oc2ccc(O)cc2c2ccccc12
inactive: dose: 100.0 mg/kg/injection, schedule: Q04DX003 (ip), vehicle: saline 105 % of control | dose: 200.0 mg/kg/injection, schedule: Q04DX003 (ip), vehicle: saline 97 % of control | dose: 400.0 mg/kg/injection, schedule: Q04DX003 (ip), vehicle: saline 103 % of control

Cc1ccc(SP(=S)(Sc2ccc(C)cc2)Sc2ccc(C)cc2)cc1
inactive: [3] 97 % of control | [4] 97 % of control | [5] 94 % of control

O=S(=O)(O)CCC(O)S(=O)(=O)O (stereo not drawn)
inactive: dose: 100.0 mg/kg/injection, schedule: Q04DX002 (ip), vehicle: Klucel (hydroxypropylcellulose) (HPC) 98 % of control | dose: 200.0 mg/kg/injection, schedule: Q04DX002 (ip), vehicle: Klucel (hydroxypropylcellulose) (HPC) 92 % of control | dose: 400.0 mg/kg/injection, schedule: Q04DX002 (ip), vehicle: Klucel (hydroxypropylcellulose) (HPC) 92 % of control

CN(CS(=O)(=O)O)c1cc(F)cc(F)c1
inactive: dose: 50.0 mg/kg/injection, schedule: Q01DX001 (ip), vehicle: saline 102 % of control | [9] 102 % of control | [10] 98 % of control | [11] 98 % of control
